Assay results as given in patent US8518889B2, “Method of treating cancer with antibodies against long-form leukotriene B4 receptor BLT2” (Korea University Research & Business Foundation, priority 2007, dated 2013).

How the values were obtained:
253J-BV cell line = test: Western blot of apoptotic proteins (PARP, Caspase-9, Bax); format: cell-based, human; settings: 48 hr
Protocol: Cells were washed with cold PBS and cells were scraped into lysis buffer [20 mM Tris-HCl (pH 7.5), 15 OmM NaCl, 0.5% NP-40, 5 mM EDTA, 1% triton X-100 added protease inhibitors] at 4° C. Harvested protein samples were heated at 95° C. for 5 min and then subjected to SDS-PAGE on acrylamide gels, followed by transfer to polyvinylidene difluoride membranes for 90 min at 100 V. The membranes were blocked for 1 h with Tris-buffered saline (TBS) containing 0.05% (vol/vol) Tween 20 plus 5% (wt/vol) nonfat dry milk and then incubated with appropriate antibodies (PARP, 1:2000 dilution, Caspase-9, 1:2000 dilution, Bax 1:2000 dilution, actin, 1:3000 dilution) in 5% nonfat milk overnight at 4° C. Then membrane bound protein-antibody complex incubated for 2 hr with HRP-conjugated secondary antibody before development with an enhanced chemiluminescence kit (Amersham Biosciences, UK). The poly ADP-ribose polymerase (PARP) cleavage have been well established as important indices of apoptosis.

SV-HUC-1 cells = test: cell cycle analysis (PI, flow cytometry); format: cell-based; settings: 48 hr, RPMI 1640 with 0.5% FBS
Protocol: (§1) The cells grown in 6-well plate were stimulated with 5 μM and 10 μM LY255283, 1 μM U75302 for 48 h in RPMI 1640 containing 0.5% FBS. The cells which were collected by brief trypsinization were fixed overnight with 70% ethanol at 4° C. The cells were resuspended in PBS containing RNase A (100 μg/ml) and incubated for 30 min at 37° C. The cells were stained with propidium iodide (50 μg/ml) (Sigma). Acquisition and analysis was performed by FACS using Cell Quest Alias software (BD Bioscience). […] Cells were treated with BLT antagonist for 48 hours and the cell cycle population was measured by flow cytometry. In brief, cells were plated in 6 well plate and then treated with LY255283, U75302 for 48 hr. At the end of the treatment, the cells were harvested and then centrifuged. The cells fixed in ice-cold 70% ethanol for 24 hr and centrifuged. The pellet were resuspended in 0.5 ml phosphate-buffered saline (PBS) and incubated with Pl 1 mg/ml treatment for 15 min.

253J-BV cells [1] = test: [3H]-thymidine incorporation assay; format: cell-based, human; settings: for inhibition of thymidine incorporation / cell proliferation: 48 hr
Protocol: Cells were seed in 96-well plate at the density of 1.0×10^4/well. After 24 hr incubation in RPMI 1640 supplemented with 10% FBS, the media was replaced with RPMI 1640 containing 0.5% FBS for 12 hr. After cells were treated with different concentration BLT antagonists. Then [^3H]-thymidine (1 μCi/ml) (PerkinElmer Life Sciences) was added at 12 hr after antagonists treatment and after 36 hr of further incubation, cells were harvested on the filtermat (PerkinElmer Life Science) and filtermat was dried and packaged in the sample bag (PerkinElmer Life Science). Finally, Betaplate scint (PerkinElmer Life Science) was added to the filtermat, and the radioactivity was counted in a liquid scintillation counter (MicroBeta, Wallac/PerkinElmer). […] LY255283 inhibited proliferation by at least 50% at a concentration of 10 μM at 48 hr.

MDA-MB-468 cells = format: cell-based, human; settings: 48 h
Protocol: Cells were plated a density of 2×10^6 cells/plate in 100-mm plate. After 24 hr, cells incubated in media containing serum-free for 3 hr. Then, cells were treated with U75302 (0.5, 1 μM), LY255283 (5, 10 μM) and incubated at 37° C. for 48 h. Both attached and detached cells were collected and resuspended in a lysis buffer (20 mM Tris/HCl, pH 8.0, 0.1 mM EDTA, 1% SDS, and 0.5 mg/ml proteinase K) and then incubated at 50° C. for overnight. DNA was extracted with phenol/chloroform.

253J-BV cells [2] = test: cell cycle analysis (PI, flow cytometry); format: cell-based, human; settings: 48 hr, RPMI 1640 with 0.5% FBS
Protocol: as §1

PWR-1E cells = test: cell counting with trypan blue; format: cell-based; settings: 1 μM and 5 μM, serum free RPMI 1640
Protocol: (§2) The effect of LY255283 was observed by counting of cell number. The cells were grown in 6-well cluster dishes to 70% confluence with 10% FBS-supplemented medium. At day 0, the medium was replaced with serum free RPMI 1640 and cells were stimulated with DMSO or 1 μM and 5 μM LY255283. The cells were harvested at various intervals. Cells were washed with PBS and collected by brief trypsinization. Total cell number was determined by counting each sample in duplicate with a hemocytometer using trypan blue dye. The cells treated with LY255283 in serum free RPM11640 were harvested at various intervals. […] In contrast, PWR-1 E cells which expressed few level of BLT2 were not affected by LY255283.

Rat2-HO6 cells = test: metastasis survival analysis (Kaplan-Meier); format: in vivo, nude mice; settings: 2.5 mg/kg intraperitoneal, 7 weeks
Protocol: All experimental animals used in this study were treated according to guidelines approved by the Institutional Animal Care and Use Committee of Korea University. Female nude mice (Charles River, Wilmington, Mass.), four-weeks-old at the time of injection, were used in the experimental metastasis assay. Rat-2, Rat2-HO6, and Rat2-BLT2 cells (5×10^5 cells) were prepared for injection from cultures in logarithmic growth at the time of harvest. The cells were briefly treated with 0.025% trypsin and 0.1% EDTA in Hanks' balanced salt solution and quickly removed from trypsin by centrifugation, resuspended in saline containing LTB4, and injected within 1 hr in 0.1 ml into the lateral tail vein with a 26-gauge needle. For inhibitor experiments, U75302 and LY255283 (0.25 mg/kg for BLT1 antagonist and 2.5 mg/kg for BLT2 antagonist) was injected intraperitoneally 3 and 5 days after injection of cells that were pretreated with inhibitors. The mice were maintained under aseptic barrier conditions until they were sacrificed at 21 days after cell injection (n=8, each group) to identify pulmonary metastasis or to investigate the mortality of mice at the end of the experiment (7 weeks) (n=8, each group). Metastasis survival was analyzed in Kaplan-Meyer plots.

LNCaP cells = test: cell counting with trypan blue; format: cell-based, human; settings: 1 μM and 5 μM, serum free RPMI 1640
Protocol: as §2

CCCCC/C=C\C[C@@H](O)/C=C/c1cccc(C[C@@H](O)CCCCO)n1 [U75302]
level of protein (Western blot) compared with control (253J-BV cell line): no significant change
cell cycle (SV-HUC-1 cells): not effect
inhibition of thymidine incorporation / cell proliferation (253J-BV cells [1]): not effect
DNA fragmentation (MDA-MB-468 cells): did not induce DNA fragmentation
cell cycle (253J-BV cells [2]): not effect

CCc1cc(C(C)=O)c(O)cc1OCCCCCC(C)(C)c1nnn[nH]1 [LY255283, 1-[5-ethyl-2-hydroxy-4-[[6-methyl-6-(1H-tetrazol-5-yl)heptyl]oxy]phenyl]-ethanone]
number of PWR-1E cells (PWR-1E cells): not affected
survival of mouse injected with Ras-oncogene expressing transformed cells (Rat2-HO6 cells): extended the survival
pro-apoptotic protein Bax level (253J-BV cell line; 10 μM): significant increased
apoptosis induction (PARP cleavage) (253J-BV cell line): Apoptosis induction was observed
pro-caspase 9 level (253J-BV cell line): reduction of pro-caspase 9
number of LNCaP cells (LNCaP cells): significantly reduced
inhibition of thymidine incorporation / cell proliferation (253J-BV cells [1]): concentration dependent inhibition
inhibition at 10 µM (253J-BV cells [1]; Homo sapiens, 10 μM at 48 hr, read-out: inhibited proliferation): ≥ 50%
DNA fragmentation (MDA-MB-468 cells): laddering pattern characteristic of apoptosis
cell cycle (253J-BV cells [2]): arresting cell cycle at sub-G1 in dose dependent manner
